System: MDA-MB-453 cells
Assay: Pharmacodynamic evaluation in NOD SCID mouse model with subcutaneous xenograft tumor of MDA-MB-453 cells
Assay type: in vivo
Details: oral, twice a day
Protocol: Experimental Example 6: Pharmacodynamic Evaluation of the Compound According to the Present Invention in NOD SCID Mouse Model with Subcutaneous Xenograft Tumor of MDA-MB-453 Cells
MDA-MB-453 cell lines were cultured in Leibovitz's L-15 medium+10% fetal bovine serum+1% […] at 37° C. under 5% CO2, and passaged once a week. When the cell saturation was between 80% and 90%, and the required quantity was reached, the cells were collected, counted, and inoculated.
When the number of cells in the logarithmic growth phase reached the required amount for the experiment, the cells were collected, and centrifuged at 1000 rpm for 5 minutes to remove the supernatant. The cells were resuspended in the medium, and counted using a cell counter. Based on the counting results, the original solution was diluted to obtain cell suspension at a concentration of 1*10^8 cells/mL. The cell viability was 94.55%, P14 generation. The diluted cell suspension and matrix gel were diluted in a 1:1 ratio, and after mixing, placed on ice. a 1 mL sterile syringe was used to transfer the suspension. 0.2 mL of cell suspension was subcutaneously inoculated into the right axilla of each mouse. Each mouse was inoculated with 1*10^7 MDA-MB-453 cells.
After inoculation, the tumor growth state was observed daily. When the average volume reached about 157.14 mm^3, mice were randomly divided into groups based on tumor size and body weight for administration. The same dose of solvent was given to the control group. The day on which tumor cells were inoculated was defined as Day 0.
The health and mortality status of animals was daily monitored, including tumor growth, activity ability, diet, weight, eyes, hair, and other abnormal behaviors. Body weight was measured daily, while tumor volume was measured twice a week. The tumor volume was measured using a vernier caliper, and the formula is TV=0.5 a×b^2, wherein a is the long diameter of the tumor, and b is the short diameter of the tumor. After reaching the experimental endpoint, plasma samples were collected from each group at pre-determined time points for determining the plasma concentration. After euthanizing mice, tumors were collected, photographed, weighed, and frozen.
Relative tumor proliferation rate, T/C (%), refers to the percentage ratio of tumor volume or weight between the treatment group and the control group at a certain time point. The calculation formula is: T/C %=TRTV/CRTV×100%
wherein, TRTV: the average relative tumor volume (RTV) of the treatment group; CRTV: the average relative tumor volume of the control group; (RTV): RTV=Vt/V0, V0 is the tumor volume of the animal at the time of grouping, and Vt is the tumor volume of the animal after treatment. […]

SMILES | TGI % after administrating for 21 days (25 mg/kg) [%] | TGI % after administrating for 21 days (75 mg/kg) [%]
C[C@@H](Nc1ccc(Cl)nc1C(=O)O)c1cc(F)cc2c(=O)n(C)c(-c3ccc(F)cn3)nc12 [Compound 74] | 74 | 85
Cc1cc([C@@H](C)Nc2ccc(Cl)nc2C(=O)O)c2nc(-c3ccc(F)cn3)n(C)c(=O)c2c1 [Compound 66, (R)-6-chloro-3-((1-(2-(5-fluoropyridin-2-yl)-3,6-dimethyl-4-oxo-3,4-dihydroquinazolin-8-yl)ethyl)amino)pyridinecarboxylic Acid] | 71 | 87
